Measurements: US5032597A, “Method of using phenylquinolinecarboxylic acids and derivatives for lymthoid leukemia treatment in a mammal” (priority 1987, dated 1991)
Converted amounts (≈) assume the structure as drawn. Counter-ions that a name gives are not always drawn.

What was measured:
L1210 leukemia = test: Lymphoid Leukemia L1210, survival of tumored mice; type: in vivo, CD2F1 mice; settings: for response vs control in vivo at 100 mg/kg: 100 mg/kg i.p.; for L1210 Leukemia % T/C (median survival time): 25 mg/kg i.p.
Procedure, shortened: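 Male CD2 F1 mice, six per group, received 10^5 L1210 cells i.p. on day 0. Compounds in hydroxypropylcellulose, saline/Tween 80 or saline were given i.p. at various doses once daily on days 1-9, with vehicle controls.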

[1] = tested on: human colon carcinoma cells HCT-15; test: Human colon tumor test in vitro, HCT-15 cell growth inhibition; type: cell-based; settings: HCT-15 cells, compound day 1 to day 4; for in vitro HCT-15 ID50 (50 percent inhibition of number of doublings): 4320 min; for IC50: Homo sapiens, HCT-15, 72 h, read-out: in vitro HCT-15 ID50 (50 percent inhibition of number of doublings)
Procedure, shortened: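 HCT-15 human colon adenocarcinoma cells in RPMI 1640 with 10% heat-inactivated FCS, compound added on day 1 and cells counted by hemocytometer on day 4. ID50 is the concentration (μg/ml) halving the number of doublings, from log-log dose-response plots.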

NF mouse sarcoma = settings: in vitro; cited from earlier work
liver tissue = settings: cited from earlier work
[2] = Mus musculus, L1210, ip, 720 h, read-out: L1210 Leukemia % T/C (median survival time)

In the case of `Cc1c(-c2ccc(-c3ccccc3F)cc2)nc2ccc(F)cc2c1C(=O)OCCN(C)C` [Example 197, 6-Fluoro-2-(2'-fluoro-1,1'-biphenyl-4-yl)-3-methyl-[(2dimethylamino)ethyl]ester-4-quinolinecarboxylic acid], the response vs control in vivo at 50 mg/kg (L1210 leukemia; Mus musculus, L1210, ip, 720 h, 50 mg/kg i.p., read-out: L1210 Leukemia % T/C (median survival time)) is reported as 179% and the “in vitro HCT-15 ID50 (50 percent inhibition of number of doublings)” value [1] is reported as less than 0.01 µg/mL.

In the case of `Cc1c(-c2ccc(-c3ccccc3F)cc2)nc2ccc(F)cc2c1C(=O)OCCN(C)C` [Example 198, [6-Fluoro-2-(2'-fluoro-1,1'-biphenyl-4-yl)3-methyl-[(2-dimethylamino)ethyl]ester-4-quinolinecarboxylic acid] hydrochloride], the response vs control in vivo at 100 mg/kg (L1210 leukemia; [2]) is reported as 178% and the “in vitro HCT-15 ID50 (50 percent inhibition of number of doublings)” value ([1]; hydrochloride) is reported as < 10^-3 μg/ml.

For `CCN(CC)CCOC(=O)c1c(C)c(-c2ccc(-c3ccccc3F)cc2)nc2ccc(F)cc12` [Example 201], the response vs control in vivo at 100 mg/kg (L1210 leukemia; [2]) was 175% and the IC50 [1] was greater than 1 mg/L.

For `Cc1c(-c2ccc(-c3ccccc3)c(F)c2)nc2ccc(F)cc2c1C(=O)O` [Example 207], the “L1210 Leukemia % T/C (median survival time)” value (L1210 leukemia) was 154% and the IC50 [1] was 0.02 mg/L (≈ 0.0533 µM).

With `Cc1c(-c2ccc(-c3ccccc3)c(F)c2)nc2ccc(F)cc2c1C(=O)O` [Example 210] the “L1210 Leukemia % T/C (median survival time)” value (L1210 leukemia) was 177% and the “in vitro HCT-15 ID50 (50 percent inhibition of number of doublings)” value [1] was “.03 µg/mL”.

For `O=C(O)c1cc(-c2ccccc2)nc2ccccc12` [cinchophen, 2-phenyl-4-quinoline carboxylic acid], the tumoricidal effect (NF mouse sarcoma) is given as “no tumoricidal effect” and the “degeneration of liver tissue” value (liver tissue) is given as “can produce a degeneration of liver tissue of a possible precancerous nature”.
